{
  "source": "the NIST ThermoML archive (doi:10.1021/je900400v)",
  "conditions": "Liquid, Closed cell (Static) method",
  "note": "Numbers after ± are expanded uncertainties.",
  "data": [
    {"smiles": "FC(F)(F)C1(F)OC1(F)F", "note": "(centres undefined) [2,2,3-trifluoro-3-(trifluoromethyl)oxirane]", "values": [
      {"measurement": "vapor or sublimation pressure", "setting": "271.88 K", "result": "302.2 ± 1.5", "unit": "kPa"},
      {"measurement": "vapor or sublimation pressure", "setting": "295.53 K", "result": "649.9 ± 2.1", "unit": "kPa"},
      {"measurement": "vapor or sublimation pressure", "setting": "300.47 K", "result": "745.6 ± 2.2", "unit": "kPa"},
      {"measurement": "vapor or sublimation pressure", "setting": "303.11 K", "result": "798.5 ± 2.3", "unit": "kPa"},
      {"measurement": "vapor or sublimation pressure", "setting": "306.5 K", "result": "874.7 ± 2.5", "unit": "kPa"},
      {"measurement": "vapor or sublimation pressure", "setting": "310.48 K", "result": "970.1 ± 2.7", "unit": "kPa"},
      {"measurement": "vapor or sublimation pressure", "setting": "312.64 K", "result": "1024.9 ± 2.9", "unit": "kPa"},
      {"measurement": "vapor or sublimation pressure", "setting": "318.16 K", "result": "1175.3 ± 3.1", "unit": "kPa"}
    ]},
    {"smiles": "FC(F)=C(F)C(F)(F)F", "note": "[hexafluoropropene]", "values": [
      {"measurement": "vapor or sublimation pressure", "setting": "272.33 K", "result": "327.1 ± 1.4", "unit": "kPa"},
      {"measurement": "vapor or sublimation pressure", "setting": "279.64 K", "result": "420.7 ± 1.7", "unit": "kPa"},
      {"measurement": "vapor or sublimation pressure", "setting": "299.34 K", "result": "763.3 ± 2.2", "unit": "kPa"},
      {"measurement": "vapor or sublimation pressure", "setting": "302.24 K", "result": "825.7 ± 2.4", "unit": "kPa"},
      {"measurement": "vapor or sublimation pressure", "setting": "312.33 K", "result": "1077.3 ± 2.8", "unit": "kPa"},
      {"measurement": "vapor or sublimation pressure", "setting": "317.63 K", "result": "1232.1 ± 3.1", "unit": "kPa"}
    ]}
  ]
}
